Experimental data reported in patent publication US9187446B2, “Antibacterial agents: sidechainfluorinated myxopyronin derivatives” (RUTGERS, THE STATE UNIVERSITY OF NEW JERSEY, priority 2012, dated 2015).
Values after ≈ are worked out from the molar mass of the structure shown. Where two headings read alike, the source gives them in different places.

Assays:
[1] = target: M. tuberculosis RNA polymerase core enzyme, M. tuberculosis σ^A (Mycobacterium tuberculosis, UniProt P9WGY7+P9WGY9); assay: Fluorescence-detected inhibition of Mycobacterium tuberculosis RNA polymerase; type: biochemical
Description: (§1) Fluorescence-detected RNA polymerase assays with E. coli RNA polymerase were performed by a modification of the procedure of Kuhlman et al., 2004 [Kuhlman, P., Duff, H. & Galant, A. (2004) A fluorescence-based assay for multisubunit DNA-dependent RNA polymerases. Anal. Biochem. 324, 183-190]. Reaction mixtures contained (20 μl): 0-100 nM test compound, 75 nM E. coli RNA polymerase σ^70 holoenzyme, 20 nM 384 bp DNA fragment containing the bacteriophage T4 N25 promoter, 100 μM ATP, 100 μM GTP, 100 μM UTP, 100 μM CTP, 50 mM Tris-HCl, pH 8.0, 100 mM KCl, 10 mM MgCl2, 1 mM DTT, 10 μg/ml bovine serum albumin, and 5.5% glycerol. Reaction components other than DNA and NTPs were pre-incubated for 10 min at 37° C. Reactions were carried out by addition of DNA and incubation for 5 min at 37° C., followed by addition of NTPs and incubation for 60 min at 37° C. DNA was removed by addition of 1 μl 5 mM CaCl2 and 2 U DNaseI (Ambion, Inc.), followed by incubation for 90 min at 37° C. RNA was quantified by addition of 100 μl RiboGreen RNA Quantitation Reagent (Invitrogen, Inc.; 1:500 dilution in Tris-HCl, pH 8.0, 1 mM EDTA), followed by incubation for 10 min at 25° C., followed by measurement of fluorescence intensity [excitation wavelength=485 nm and emission wavelength=535 nm; QuantaMaster QM1 spectrofluorometer (PTI, Inc.)]. IC50 is defined as the concentration of inhibitor resulting in 50% inhibition of RNA polymerase activity.
(§2) Fluorescence-detected RNA polymerase assays with M. tuberculosis RNA polymerase were performed as in Example 17.1, using reaction mixtures containing (20 μl): 0-100 nM test compound, 75 nM M. tuberculosis RNA polymerase core enzyme, 300 nM M. tuberculosis σ^A, 20 nM 384 bp DNA fragment containing the bacteriophage […] N25 promoter, 100 μM ATP, 100 GTP, 100 μM UTP, 100 μM CTP, 40 mM Tris-HCl, pH 8.0, 80 mM NaCl, 5 mM MgCl2, 2.5 mM DTT, and 12.7% glycerol. IC50 is defined as the concentration of inhibitor resulting in 50% inhibition of RNA polymerase activity.

[2] = target: E. coli RNA polymerase σ^70 holoenzyme (Escherichia coli, UniProt P0A8T7+P0A8V2); assay: Fluorescence-detected inhibition of Escherichia coli RNA polymerase; type: biochemical; details: read-out: IC50 E. coli RNAP
Description: as §1

[3] = target: S. aureus RNA polymerase core enzyme, S. aureus σ^A (Staphylococcus aureus, UniProt P47768+Q2G0N5); assay: Fluorescence-detected inhibition of Staphylococcus aureus RNA polymerase; type: biochemical
Description: as §1
as §2, with “assays with S. aureus RNA polymerase” for “assays with M. tuberculosis RNA polymerase”, “75 nM S. aureus RNA polymerase” for “75 nM M. tuberculosis RNA polymerase”, “300 nM S. aureus σ^A, 20” for “300 nM M. tuberculosis σ^A, 20”, “ATP, 100 μM GTP, 100” for “ATP, 100 GTP, 100”

[4] = test system: Enterococcus faecalis ATCC strain 19433; assay: MIC, spiral gradient endpoint assay, E. faecalis; details: for MIC: Enterococcus faecalis, ATCC19433, 16 h, read-out: MIC E. faecalis 19433
[5] = test system: Escherichia coli D212f2tolC; details: MIC in presence of 10% mouse serum divided by MIC in absence of 10% mouse serum
[6] = test system: Burkholderia pseudomallei strain Human/Blood/OH/US/1994; assay: microbe, parasite or virus in culture; type: cell-based
[7] = test system: Burkholderia mallei strain CHN7; assay: microbe, parasite or virus in culture; type: cell-based
[8] = not given; remark: listed apart in the source
[9] = test system: Bacillus anthracis strain Vollum 1 b; assay: microbe, parasite or virus in culture; type: cell-based
[10] = test system: Brucella melitensis strain 16M; assay: microbe, parasite or virus in culture; type: cell-based
[11] = test system: Francisella tularensis strain SCHU4; assay: microbe, parasite or virus in culture; type: cell-based
[12] = physchem; details: pH 7.4
[13] = Metabolic stability in the presence of human liver microsomes
[14] = read-out: IC50 M. tuberculosis RNAP

Sequence of S. aureus RNA polymerase core enzyme, S. aureus σ^A (Q2FW32 whole entry): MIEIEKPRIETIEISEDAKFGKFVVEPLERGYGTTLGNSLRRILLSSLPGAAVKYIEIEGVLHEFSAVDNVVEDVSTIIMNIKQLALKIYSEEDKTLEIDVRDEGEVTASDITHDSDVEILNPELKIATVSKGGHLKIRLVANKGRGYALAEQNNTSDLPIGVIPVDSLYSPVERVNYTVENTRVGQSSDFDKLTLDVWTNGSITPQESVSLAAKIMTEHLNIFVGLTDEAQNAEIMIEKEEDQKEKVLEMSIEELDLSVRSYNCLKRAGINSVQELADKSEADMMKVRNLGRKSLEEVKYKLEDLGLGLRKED
Sequence of S. aureus RNA polymerase core enzyme, S. aureus σ^A (P0A0J0 whole entry, further chain): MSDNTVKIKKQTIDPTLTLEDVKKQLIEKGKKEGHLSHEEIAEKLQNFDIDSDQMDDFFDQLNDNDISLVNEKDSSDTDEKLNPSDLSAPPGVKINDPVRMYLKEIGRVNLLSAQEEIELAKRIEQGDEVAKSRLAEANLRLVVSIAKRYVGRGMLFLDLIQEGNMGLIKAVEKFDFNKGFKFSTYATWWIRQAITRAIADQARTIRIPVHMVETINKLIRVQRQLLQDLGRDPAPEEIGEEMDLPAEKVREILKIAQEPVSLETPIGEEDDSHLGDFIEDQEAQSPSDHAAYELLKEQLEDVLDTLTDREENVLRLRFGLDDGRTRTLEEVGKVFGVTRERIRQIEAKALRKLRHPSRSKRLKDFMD
Sequence of S. aureus RNA polymerase core enzyme, S. aureus σ^A (P47768 whole entry): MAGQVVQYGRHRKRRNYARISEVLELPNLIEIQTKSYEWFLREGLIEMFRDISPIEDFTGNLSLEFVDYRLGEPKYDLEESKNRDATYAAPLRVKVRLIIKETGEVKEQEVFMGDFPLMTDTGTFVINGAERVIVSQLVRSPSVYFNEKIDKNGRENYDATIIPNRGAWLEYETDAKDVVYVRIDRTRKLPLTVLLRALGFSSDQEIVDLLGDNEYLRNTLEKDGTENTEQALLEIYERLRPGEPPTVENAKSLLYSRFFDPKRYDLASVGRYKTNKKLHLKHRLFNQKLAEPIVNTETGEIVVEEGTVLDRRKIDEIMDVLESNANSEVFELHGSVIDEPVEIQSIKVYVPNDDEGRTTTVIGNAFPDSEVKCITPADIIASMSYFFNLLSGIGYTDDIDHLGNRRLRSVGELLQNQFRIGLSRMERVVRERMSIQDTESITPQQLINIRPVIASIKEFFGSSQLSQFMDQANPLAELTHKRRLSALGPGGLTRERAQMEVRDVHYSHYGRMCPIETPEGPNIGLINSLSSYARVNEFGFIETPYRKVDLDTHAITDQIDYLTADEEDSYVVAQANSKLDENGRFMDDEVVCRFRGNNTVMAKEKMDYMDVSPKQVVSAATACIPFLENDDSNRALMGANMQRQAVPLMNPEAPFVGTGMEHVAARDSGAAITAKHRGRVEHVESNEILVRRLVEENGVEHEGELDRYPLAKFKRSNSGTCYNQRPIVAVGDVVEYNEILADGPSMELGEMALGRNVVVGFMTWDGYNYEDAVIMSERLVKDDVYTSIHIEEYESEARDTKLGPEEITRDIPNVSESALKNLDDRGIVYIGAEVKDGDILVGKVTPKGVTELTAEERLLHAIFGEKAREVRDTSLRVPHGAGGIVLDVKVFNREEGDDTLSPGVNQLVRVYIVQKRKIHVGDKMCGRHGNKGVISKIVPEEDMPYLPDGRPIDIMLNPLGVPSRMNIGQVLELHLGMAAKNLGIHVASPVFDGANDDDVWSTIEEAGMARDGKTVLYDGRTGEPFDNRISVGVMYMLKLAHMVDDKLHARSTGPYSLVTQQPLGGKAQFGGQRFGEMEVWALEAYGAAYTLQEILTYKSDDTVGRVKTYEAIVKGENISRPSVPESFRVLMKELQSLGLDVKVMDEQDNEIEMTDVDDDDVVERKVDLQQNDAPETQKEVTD
Sequence of S. aureus RNA polymerase core enzyme, S. aureus σ^A (Q2G0N5 whole entry): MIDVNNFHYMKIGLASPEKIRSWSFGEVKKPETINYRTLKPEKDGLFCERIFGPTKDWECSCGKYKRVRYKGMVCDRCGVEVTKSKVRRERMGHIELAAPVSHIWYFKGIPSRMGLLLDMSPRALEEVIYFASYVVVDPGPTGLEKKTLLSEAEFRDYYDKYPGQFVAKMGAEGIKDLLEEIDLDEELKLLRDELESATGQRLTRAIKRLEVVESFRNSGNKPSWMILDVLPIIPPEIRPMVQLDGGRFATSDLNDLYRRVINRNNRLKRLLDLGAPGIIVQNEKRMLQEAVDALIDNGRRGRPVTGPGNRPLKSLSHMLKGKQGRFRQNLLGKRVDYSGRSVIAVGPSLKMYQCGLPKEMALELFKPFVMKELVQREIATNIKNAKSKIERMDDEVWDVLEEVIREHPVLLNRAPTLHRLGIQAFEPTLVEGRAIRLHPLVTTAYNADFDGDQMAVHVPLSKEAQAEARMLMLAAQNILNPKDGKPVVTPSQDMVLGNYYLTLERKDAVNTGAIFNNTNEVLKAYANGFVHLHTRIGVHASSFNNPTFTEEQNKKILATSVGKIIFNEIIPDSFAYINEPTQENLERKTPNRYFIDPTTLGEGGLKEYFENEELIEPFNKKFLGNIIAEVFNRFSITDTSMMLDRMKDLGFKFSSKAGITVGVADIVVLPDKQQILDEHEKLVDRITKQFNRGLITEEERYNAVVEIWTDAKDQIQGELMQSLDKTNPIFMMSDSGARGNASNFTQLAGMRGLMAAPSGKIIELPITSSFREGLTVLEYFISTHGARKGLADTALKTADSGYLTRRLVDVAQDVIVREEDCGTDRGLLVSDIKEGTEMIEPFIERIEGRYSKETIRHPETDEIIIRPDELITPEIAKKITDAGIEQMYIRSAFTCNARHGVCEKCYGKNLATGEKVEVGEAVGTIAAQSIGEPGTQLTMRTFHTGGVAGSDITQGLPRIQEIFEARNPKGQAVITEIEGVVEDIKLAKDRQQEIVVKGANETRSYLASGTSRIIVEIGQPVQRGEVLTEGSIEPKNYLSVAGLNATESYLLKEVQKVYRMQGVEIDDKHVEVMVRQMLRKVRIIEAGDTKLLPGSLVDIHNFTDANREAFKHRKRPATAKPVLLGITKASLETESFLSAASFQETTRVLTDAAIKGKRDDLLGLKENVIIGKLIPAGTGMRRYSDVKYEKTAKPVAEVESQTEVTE

SMILES: COC(=O)N/C=C/CCC(C)c1cc(O)c(C(=O)/C(C)=C/C=C(\C)CCC(F)(F)F)c(=O)o1 (stereo not drawn) [compound 5]
- IC50 [1, 14]: 100 nM
- IC50 [2]: 4 nM
- IC50 ([3]; read-out: IC50 S. aureus RNAP): 100 nM
- MIC [4]: > 40 µg/mL
- serum shift [5]: 8

SMILES: CCCC/C(C)=C/C=C(\C)C(=O)c1c(O)cc([C@H](C)CC/C=C/NC(=O)OC)oc1=O (racemic) [Myx B, (±)myxopyronin B, reference compound]
- IC50 [1, 14]: 100 nM
- IC50 [2]: 10 nM
- half-life human liver microsomes: 3 min
- IC50 ([3]; read-out: IC50 S. aureus RNAP): 70 nM
- MIC B. pseudomallei Human/Blood/OH/US/1994 ([6]; broth microdilution): 30 µg/mL (≈ 69.5 µM)
- MIC E. faecalis 19433 ([4]; 16 h at 37° C., Mueller-Hinton II agar): 20 µg/mL (≈ 46.3 µM)
- MIC B. mallei CHN7 ([7]; broth microdilution): 6 µg/mL (≈ 13.9 µM)
- logD (pH 7.4) [8]: 1.8
- MIC B. anthracis Vollum1b ([9]; broth microdilution): 6 µg/mL (≈ 13.9 µM)
- serum shift [5]: 16
- MIC B. melitensis 16M ([10]; broth microdilution): 3 µg/mL (≈ 6.95 µM)
- MIC F. tularensis SCHU4 ([11]; broth microdilution): 2 µg/mL (≈ 4.63 µM)

SMILES: COC(=O)N/C=C/CCCc1cc(O)c(C(=O)/C(C)=C/C=C(\C)CCC(F)(F)F)c(=O)o1 [compound 11, Methyl ((E)-5-(4-hydroxy-2-oxo-3-((2E,4E)-8,8,8-trifluoro-2,5-dimethylocta-2,4-dienoyl)-2H-pyran-6-yl)pent-1-en-1-yl)carbamate]
- IC50 [2]: 20 nM
- MIC [4]: > 40 µg/mL
- serum shift [5]: 4

SMILES: COC(=O)N/C=C/CCCc1cc(O)c(C(=O)/C(C)=C/C=C(\C)CCCC(F)(F)F)c(=O)o1 [compound 9, Methyl ((E)-5-(4-hydroxy-2-oxo-3-((2E,4E)-9,9,9-trifluoro-2,5-dimethylnona-2,4-dienoyl)-2H-pyran-6-yl)pent-1-en-1-yl)carbamate]
- IC50 [1, 14]: 60 nM
- IC50 [2]: 5 nM
- MIC [4]: 10 µg/mL (≈ 21.2 µM)
- serum shift [5]: 8

SMILES: COC(=O)N/C=C/CCC(C)c1cc(O)c(C(=O)/C(C)=C/C=C(\C)CCCCC(F)(F)F)c(=O)o1 (stereo not drawn) [compound 3, Methyl ((E)-5-(4-hydroxy-2-oxo-3-((2E,4E)-10,10,10-trifluoro-2,5-dimethyldeca-2,4-dienoyl)-2H-pyran-6-yl)hex-1-en-1-yl)carbamate]
- IC50 [1]: 200 nM
- IC50 [2]: 10 nM
- IC50 [3]: 40 nM
- MIC [4]: 10 µg/mL (≈ 20 µM)
- serum shift [5]: 16

SMILES: COC(=O)N/C=C/CCC(C)c1cc(O)c(C(=O)/C(C)=C/C=C(\C)CCCC(F)(F)F)c(=O)o1 (stereo not drawn) [compound 1, Methyl ((E)-5-(4-hydroxy-2-oxo-3-((2E,4E)-9,9,9-trifluoro-2,5-dimethylnona-2,4-dienoyl)-2H-pyran-6-yl)hex-1-en-1-yl)carbamate]
- IC50 [1, 14]: 30 nM
- logD [12]: 1.4
- higher metabolic stability than (±)myxopyronin B ([13]; human liver microsomes, relative to Myx B): 4 to 5 times
- half-life ([13]; human, liver microsomes): 14 min
- IC50 [2]: 4 nM
- IC50 ([3]; read-out: IC50 S. aureus RNAP): 10 nM
- MIC ([6]; Burkholderia pseudomallei, read-out: MIC B. pseudomallei Human/Blood/OH/US/1994): 50 µg/mL (≈ 103 µM)
- MIC [4]: 9 µg/mL (≈ 18.5 µM)
- MIC ([7]; Burkholderia mallei, CHN7, read-out: MIC B. mallei CHN7): 10 µg/mL (≈ 20.6 µM)
- MIC ([9]; Bacillus anthracis, VOLLUM1B, read-out: MIC B. anthracis Vollum1b): 6 µg/mL (≈ 12.4 µM)
- serum shift [5]: 8
- MIC ([10]; Brucella melitensis, 16M, read-out: MIC B. melitensis 16M): 6 µg/mL (≈ 12.4 µM)
- MIC ([11]; Francisella tularensis, SCHU4, read-out: MIC F. tularensis SCHU4): 3 µg/mL (≈ 6.18 µM)
